Six compounds from patent publication US4871766A, “Oil-in-water pesticidal emulsion” (priority 1986, dated 1989) can be followed below.

The nature of series [1]: Solubility of active ingredient in hydrocarbon at 0° C. The class given is physicochemical.
Series [2] is described as follows: Behaviour of active ingredient on storage at 0° C. The class given is physicochemical. Particulars: stored at 0° C. for a long time.

Take `CC1(C)C(C=C(Cl)Cl)C1C(=O)OCc1cccc(Oc2ccccc2)c1` (stereo not drawn) [active ingredient (d), 3-Phenoxybenzyl 3-(2,2-dichlorovinyl)-2,2-dimethylcyclopropanecarboxylate]: in series [1] (hydrocarbon (4)), the “solubility in the hydrocarbon (4)” value is listed as ≥ 50 wt. %. On to `CC(C)C(C(=O)OC(C#N)c1cccc(Oc2ccccc2)c1)c1ccc(Cl)cc1` (stereo not drawn) [active ingredient (f), α-Cyano-3-phenoxybenzyl 2-(4-chlorophenyl)-3-methylbutyrate], for which the “solubility in the hydrocarbon (3)” value in series [1] is listed as ≥ 50 wt. %. Same read-out and setting: under `CC1(C)C(C(=O)OC(C#N)c2cccc(Oc3ccccc3)c2)C1(C)C` (stereo not drawn) [active ingredient (e), α-Cyano-3-phenoxybenzyl 2,2,3,3-tetramethylcyclopropanecarboxylate] stands ≥ 50 wt. %. In the case of `CC1(C)C(C=C(Cl)Cl)C1C(=O)OC(C#N)c1cccc(Oc2ccccc2)c1` (stereo not drawn) [active ingredient (b), α-Cyano-3-phenoxybenzyl 3-(2,2-dichlorovinyl)-2,2-dimethylcyclopropanecarboxylate], the “crystallization of the active ingredient on storage” value in series [2] was “crystallizes in part”.

Regarding `CCC(C)c1ccccc1OC(=O)NC` (stereo not drawn) [active ingredient (a), 2-Sec-butylphenyl N--methylcarbamate], in series [1] (hydrocarbon (5)), the “solubility in the hydrocarbon (5)” value is ≥ 50 wt. %.

In the case of `CC(COc1ccc(Oc2ccccc2)cc1)Oc1ccccn1` (stereo not drawn) [active ingredient (h), 2-{1-Methyl-2-(4-phenoxyphenoxy)ethoxy}pyridine], the “solubility in the hydrocarbon (6)” value in series [1] (hydrocarbon (6)) is 10 wt. %.
